Laboratory results: PubChem BioAssay AID1259411 (Chemical Carcinogenesis Research Information System (CCRIS), 2018)
Calls of active or inactive are those of the source. How the calls were made is not given here.

System: rodent carcinogenicity bioassays, tumor incidence
Assay: CCRIS carcinogenicity studies
Method in brief: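 NCI-built, expert-reviewed records of carcinogenicity and related test outcomes (mutagenicity, tumor promotion/inhibition) compiled from published and report sources, historical span 1985-2011, not updated.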

`CCCCCCCCCCCCN(C)N=O` was tested, and the carcinogen call (Species: RAT, Strain/Sex: F344/MALE, Route: GAVAGE, Dose: 60 MG/ML IN CORN OIL 2/WK FOR 30 WK, STUDY DURATION: 112 WK, Tumor Site: Type of Lesion: LUNG: ADENOCARCINOMA, FORESTOMACH: CARCINOMA, BLADDER, Tumor Site: Type of Lesion: LUNG: ADENOCARCINOMA, FORESTOMACH: CARCINOMA, BLADDER) was “active; positive”.
With `CN(C)C(=S)SSC(=S)N(C)C` the carcinogen call (Species: DOG, Strain/Sex: BEAGLE/FEMALE, Route: ORAL, Dose: 0, 0.4, 4, 40 MG/KG/D ADMINISTERED IN GELATIN CAPSULES 7 D/WK FOR 104 WK (STUDY DURATION: 104 WK), Dose: 0, 0.4, 4, 40 MG/KG/D ADMINISTERED IN GELATIN CAPSULES 7 D/WK FOR 104 WK (STUDY DURATION: 104 WK)) was “inactive; negative”, the carcinogen call (Species: DOG, Strain/Sex: BEAGLE/MALE, Route: ORAL, Dose: 0, 0.4, 4, 40 MG/KG/D ADMINISTERED IN GELATIN CAPSULES 7 D/WK FOR 104 WK (STUDY DURATION: 104 WK), Dose: 0, 0.4, 4, 40 MG/KG/D ADMINISTERED IN GELATIN CAPSULES 7 D/WK FOR 104 WK (STUDY DURATION: 104 WK)) was “inactive; negative” and the carcinogen call (Species: MOUSE, Strain/Sex: SWISS/FEMALE, Route: DERMAL, Dose: 0, 100 MG/KG BW IN 100 µL DMSO 3/WK FOR 52 WK (STUDY DURATION: 52 WK)) was “inactive; negative”. The carcinogen call (Species: MOUSE, Strain/Sex: SWISS/MALE, Route: 0, 100 MG/KG BW IN 100 µL DMSO 3/WK FOR 52 WK (STUDY DURATION: 52 WK)) was “inactive; negative”, the carcinogen call (Species: RAT, Strain/Sex: F344/FEMALE, Route: ORAL, Dose: 0, 0.05, 0.1% IN DIET FOR 104 WK (STUDY DURATION: 112 WK), Dose: 0, 0.05, 0.1% IN DIET FOR 104 WK (STUDY DURATION: 112 WK)) was “inactive; negative” and the carcinogen call (Species: RAT, Strain/Sex: F344/MALE, Route: ORAL, Dose: 0, 0.05, 0.1% IN DIET FOR 104 WK (STUDY DURATION: 112 WK), Dose: 0, 0.05, 0.1% IN DIET FOR 104 WK (STUDY DURATION: 112 WK)) was “inactive; negative”. The carcinogen call (Species: RAT, Strain/Sex: WISTAR/FEMALE, Route: ORAL, Dose: 0, 3, 30, 300 PPM IN DIET FOR 104 WK (STUDY DURATION: 104 WK), Dose: 0, 3, 30, 300 PPM IN DIET FOR 104 WK (STUDY DURATION: 104 WK)) was “inactive; negative” and the carcinogen call (Species: RAT, Strain/Sex: WISTAR/MALE, Route: ORAL, Dose: 0, 3, 30, 300 PPM IN DIET FOR 104 WK (STUDY DURATION: 104 WK), Dose: 0, 3, 30, 300 PPM IN DIET FOR 104 WK (STUDY DURATION: 104 WK)) was “inactive; negative”.
`CCCN(COC(C)=O)N=O` was tested, and the carcinogen call (Species: RAT, Strain/Sex: F344/FEMALE, Route: SUBCUTANEOUS, Dose: 6.1 MG/KG 1/WK FOR 10 WK, Tumor Site: Type of Lesion: INJECTION SITE: MALIGNANT FIBROUS HISTIOCYTOMA, LUNG: ADENOMA, ADENOCARCINOMA OR SQUAMOUS CELL CARCINOMA, THYROID GLAND:, Tumor Site: Type of Lesion: INJECTION SITE: MALIGNANT FIBROUS HISTIOCYTOMA, LUNG: ADENOMA, ADENOCARCINOMA OR SQUAMOUS CELL CARCINOMA, THYROID GLAND:) was “active; positive” and the carcinogen call (Species: RAT, Strain/Sex: F344/MALE, Route: SUBCUTANEOUS, Dose: 6.1 MG/KG 1/WK FOR 10 WK, Tumor Site: Type of Lesion: INJECTION SITE: MALIGNANT FIBROUS HISTIOCYTOMA, LUNG: ADENOMA, ADENOCARCINOMA OR SQUAMOUS CELL CARCINOMA) was “active; positive”.
`O[C@@H]1c2ccccc2-c2nc3ccccc3cc2[C@H]1O` was tested, and the carcinogen call (Species: MOUSE, Strain/Sex: SWISS/FEMALE, Route: INTRAPERITONEAL, Dose: 0, 1.05 UMOL GIVEN AS 150 NMOL IN 5 µL DMSO WITHIN 24 HR OF BIRTH, 300 NMOL IN 10 µL DMSO ON D 8 OF LIFE, AND 600 NMOL I) was “inactive; negative” and the carcinogen call (Species: MOUSE, Strain/Sex: SWISS/MALE, Route: INTRAPERITONEAL, Dose: 0, 1.05 UMOL GIVEN AS 150 NMOL IN 5 µL DMSO WITHIN 24 HR OF BIRTH, 300 NMOL IN 10 µL DMSO ON D 8 OF LIFE, AND 600 NMOL I) was “inactive; negative”.
In the case of `O=C(O)CCC(=O)O`, the carcinogen call (Species: RAT, Strain/Sex: F344/FEMALE, Route: ORAL, Dose: 0, 1, 2% IN DRINKING WATER FOR 2 YR (STUDY DURATION: 2 YR), Dose: 0, 1, 2% IN DRINKING WATER FOR 2 YR (STUDY DURATION: 2 YR)) is reported as “inactive; negative” and the carcinogen call (Species: RAT, Strain/Sex: F344/MALE, Route: ORAL, Dose: 0, 1, 2% IN DRINKING WATER FOR 2 YR (STUDY DURATION: 2 YR), Dose: 0, 1, 2% IN DRINKING WATER FOR 2 YR (STUDY DURATION: 2 YR)) is reported as “inactive; negative”.
With `C=CCOC(=O)c1ccccc1C(=O)OCC=C` the carcinogen call (Species: MOUSE, Strain/Sex: B6C3F1/FEMALE, Route: GAVAGE, Dose: 0, 150, 300 MG/KG IN CORN OIL FOR 5 D/WK FOR 103 WK (STUDY DURATION: 103 WK), Dose: 0, 150, 300 MG/KG IN CORN OIL FOR 5 D/WK FOR 103 WK (STUDY DURATION: 103 WK), Tumor Site: Type of Lesion: FORESTOMACH: SQUAMOUS CELL PAPILLOMA) was “equivocal”, the carcinogen call (Species: MOUSE, Strain/Sex: B6C3F1/MALE, Route: GAVAGE, Dose: 0, 150, 300 MG/KG IN CORN OIL FOR 5 D/WK FOR 103 WK (STUDY DURATION: 103 WK), Dose: 0, 150, 300 MG/KG IN CORN OIL FOR 5 D/WK FOR 103 WK (STUDY DURATION: 103 WK), Tumor Site: Type of Lesion: FORESTOMACH: SQUAMOUS CELL PAPILLOMA, HEMATOPOIETIC SYSTEM: LYMPHOMA) was “equivocal” and the carcinogen call (Species: RAT, Strain/Sex: F344/FEMALE, Route: GAVAGE, Dose: 0, 50, 100 MG/KG IN CORN OIL 5 D/WK FOR 103 WK (STUDY DURATION: 105 WK), Dose: 0, 50, 100 MG/KG IN CORN OIL 5 D/WK FOR 103 WK (STUDY DURATION: 105 WK), Tumor Site: Type of Lesion: HEMATOPOIETIC SYSTEM: MONONUCLEAR CELL LEUKEMIA) was “equivocal”. For the same molecule, the carcinogen call (Species: RAT, Strain/Sex: F344/MALE, Route: GAVAGE, Dose: 0, 50, 100 MG/KG IN CORN OIL 5 D/WK FOR 103 WK (STUDY DURATION: 105 WK), Dose: 0, 50, 100 MG/KG IN CORN OIL 5 D/WK FOR 103 WK (STUDY DURATION: 105 WK)) was “inactive; negative”.
In the case of `O=[N+]([O-])c1ccccc1`, the carcinogen call (Species: MOUSE, Strain/Sex: B6C3F1/FEMALE, Route: INHALATION, Dose: 0, 5, 25, 50 PPM 6 HR/D 5 D/WK FOR 2 YR (STUDY DURATION: 2 YR), Dose: 0, 5, 25, 50 PPM 6 HR/D 5 D/WK FOR 2 YR (STUDY DURATION: 2 YR), Tumor Site: Type of Lesion: MAMMARY GLAND: ADENOCARCINOMA) is reported as “active; positive”, the carcinogen call (Species: MOUSE, Strain/Sex: B6C3F1/MALE, Route: INHALATION, Dose: 0, 5, 25, 50 PPM 6 HR/D 5 D/WK FOR 2 YR (STUDY DURATION: 2 YR), Dose: 0, 5, 25, 50 PPM 6 HR/D 5 D/WK FOR 2 YR (STUDY DURATION: 2 YR), Tumor Site: Type of Lesion: LUNG: ADENOMA, ADENOMA OR CARCINOMA, THYROID GLAND: FOLLICULAR CELL ADENOMA) is reported as “active; positive” and the carcinogen call (Species: RAT, Strain/Sex: F344/FEMALE, Route: INHALATION, Dose: 0, 1, 5, 25 PPM 6 HR/D 5 D/WK FOR 2 YR (STUDY DURATION: 2 YR), Dose: 0, 1, 5, 25 PPM 6 HR/D 5 D/WK FOR 2 YR (STUDY DURATION: 2 YR), Tumor Site: Type of Lesion: UTERUS: ENDOMETRIAL STROMAL POLYP) is reported as “active; positive”. For the same molecule, the carcinogen call (Species: RAT, Strain/Sex: F344/MALE, Route: INHALATION, Dose: 0, 1, 5, 25 PPM 6 HR/D 5 D/WK FOR 2 YR (STUDY DURATION: 2 YR), Dose: 0, 1, 5, 25 PPM 6 HR/D 5 D/WK FOR 2 YR (STUDY DURATION: 2 YR), Tumor Site: Type of Lesion: LIVER: HEPATOCELLULAR ADENOMA, HEPATOCELLULAR ADENOMA OR CARCINOMA, KIDNEY: TUBULAR ADENOMA, TUBULAR ADENOMA OR CARCINOM) was “active; positive” and the carcinogen call (Species: RAT, Strain/Sex: STRAIN-CD/MALE, Route: INHALATION, Dose: 0, 1, 5, 25 PPM 6 HR/D 5 D/WK FOR 2 YR (STUDY DURATION: 2 YR), Dose: 0, 1, 5, 25 PPM 6 HR/D 5 D/WK FOR 2 YR (STUDY DURATION: 2 YR), Tumor Site: Type of Lesion: LIVER: HEPATOCELLULAR ADENOMA, HEPATOCELLULAR ADENOMA OR CARCINOMA) was “active; positive”.
For `Cc1ccc(Nc2ccc(O)c3c2C(=O)c2ccccc2C3=O)cc1`, the carcinogen call (Species: MOUSE, Strain/Sex: SWISS-WEBSTER/FEMALE, Route: DERMAL, Dose: 0, 1% IN 0.1 ML 0.1% SODIUM LAURYL SULFATE 1/WK FOR 18 MO (STUDY DURATION: 18 MO)) was “inactive; negative” and the carcinogen call (Species: MOUSE, Strain/Sex: SWISS-WEBSTER/MALE, Route: DERMAL, Dose: 0, 1% IN 0.1 ML 0.1% SODIUM LAURYL SULFATE 1/WK FOR 18 MO (STUDY DURATION: 18 MO)) was “inactive; negative”.
